Data published in ChEMBL document CHEMBL3596148, “Meridianin derivatives as potent Dyrk1A inhibitors and neuroprotective agents” (Bioorg Med Chem Lett, 2015).

Tests used:
[1] = Cytotoxicity against human SH-SY5Y cells assessed as cell viability at 30 uM after 24 hrs by MTT assay relative to control; type: cell-based; conditions: read-out: Activity
SH-SY5Y [2] = assay: Neuroprotective activity against glutamate-induced neurotoxicity in human SH-SY5Y cells assessed as cell viability at 50 uM incubated for 30 mins prior to glutamate challenge measured after 24 hrs by MTT assay (reference value: 73.8 +/- 4.5%); type: functional; conditions: read-out: Activity
SH-SY5Y [3] = assay: Neuroprotective activity against glutamate-induced neurotoxicity in human SH-SY5Y cells assessed as cell viability at 10 uM incubated for 30 mins prior to glutamate challenge measured after 24 hrs by MTT assay (reference value: 73.8 +/- 4.5%); type: functional; conditions: read-out: Activity
[4] = target: T1, Dual specificity tyrosine-phosphorylation-regulated kinase 2 (Homo sapiens, UniProt Q92630); assay: Inhibition of Dyrk2 (unknown origin) using Woodtide as substrate after 30 mins by P81 membrane assay in presence of [33P]-g-ATP
T1 sequence (Q92630 whole entry): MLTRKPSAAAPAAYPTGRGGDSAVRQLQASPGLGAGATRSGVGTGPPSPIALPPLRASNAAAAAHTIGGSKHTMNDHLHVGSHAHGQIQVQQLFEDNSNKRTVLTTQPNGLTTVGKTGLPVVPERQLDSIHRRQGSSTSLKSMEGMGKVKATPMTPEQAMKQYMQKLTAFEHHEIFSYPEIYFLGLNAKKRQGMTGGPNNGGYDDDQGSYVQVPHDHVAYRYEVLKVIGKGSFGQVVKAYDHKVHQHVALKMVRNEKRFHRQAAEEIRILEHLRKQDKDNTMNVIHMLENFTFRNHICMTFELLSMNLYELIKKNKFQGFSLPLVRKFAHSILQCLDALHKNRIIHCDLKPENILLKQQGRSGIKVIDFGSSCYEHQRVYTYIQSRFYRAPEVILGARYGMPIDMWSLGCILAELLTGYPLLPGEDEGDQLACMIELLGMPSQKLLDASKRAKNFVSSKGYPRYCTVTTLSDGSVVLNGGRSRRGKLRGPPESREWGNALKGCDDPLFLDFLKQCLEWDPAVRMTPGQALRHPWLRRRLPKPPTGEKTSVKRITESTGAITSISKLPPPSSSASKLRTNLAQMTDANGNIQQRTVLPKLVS

[5] = target: T2, Dual specificity tyrosine-phosphorylation-regulated kinase 3 (Homo sapiens, UniProt O43781); assay: Inhibition of Dyrk3 (unknown origin) using Woodtide as substrate after 30 mins by P81 membrane assay in presence of [33P]-g-ATP
T2 sequence (O43781 whole entry): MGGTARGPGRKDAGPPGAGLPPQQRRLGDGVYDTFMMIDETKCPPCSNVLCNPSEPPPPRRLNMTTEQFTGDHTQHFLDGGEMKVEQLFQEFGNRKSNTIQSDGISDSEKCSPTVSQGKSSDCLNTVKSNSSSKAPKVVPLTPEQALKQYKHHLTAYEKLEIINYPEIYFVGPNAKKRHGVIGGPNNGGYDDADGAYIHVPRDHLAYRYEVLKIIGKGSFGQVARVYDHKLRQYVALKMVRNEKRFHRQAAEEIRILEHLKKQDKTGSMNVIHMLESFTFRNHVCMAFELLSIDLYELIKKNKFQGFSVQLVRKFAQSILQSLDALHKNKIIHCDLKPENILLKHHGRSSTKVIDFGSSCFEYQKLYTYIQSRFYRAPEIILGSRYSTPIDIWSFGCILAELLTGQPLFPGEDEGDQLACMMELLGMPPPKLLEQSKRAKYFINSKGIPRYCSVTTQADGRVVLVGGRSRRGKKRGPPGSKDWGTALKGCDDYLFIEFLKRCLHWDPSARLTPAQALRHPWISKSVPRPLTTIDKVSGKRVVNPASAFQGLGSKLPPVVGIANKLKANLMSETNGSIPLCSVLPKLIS

[6] = target: RAC-beta serine/threonine-protein kinase (Homo sapiens) (UniProt P31751); assay: Inhibition of PKBbeta (unknown origin) at 0.5 uM relative to control
[7] = target: Protein kinase C alpha type (Homo sapiens) (UniProt P17252); assay: Inhibition of PKCalpha (unknown origin) at 0.5 uM relative to control
[8] = target: Cyclin-dependent kinase 2 (Homo sapiens) (UniProt P24941); assay: Inhibition of CDK2 (unknown origin) at 0.5 uM relative to control
[9] = target: Aurora kinase B (Homo sapiens) (UniProt Q96GD4); assay: Inhibition of Aurora B (unknown origin) at 0.5 uM relative to control
[10] = target: T3, Inhibitor of nuclear factor kappa-B kinase subunit beta (Homo sapiens) (UniProt O14920); assay: Inhibition of IKKbeta (unknown origin) at 0.5 uM relative to control
T3 sequence (whole entry): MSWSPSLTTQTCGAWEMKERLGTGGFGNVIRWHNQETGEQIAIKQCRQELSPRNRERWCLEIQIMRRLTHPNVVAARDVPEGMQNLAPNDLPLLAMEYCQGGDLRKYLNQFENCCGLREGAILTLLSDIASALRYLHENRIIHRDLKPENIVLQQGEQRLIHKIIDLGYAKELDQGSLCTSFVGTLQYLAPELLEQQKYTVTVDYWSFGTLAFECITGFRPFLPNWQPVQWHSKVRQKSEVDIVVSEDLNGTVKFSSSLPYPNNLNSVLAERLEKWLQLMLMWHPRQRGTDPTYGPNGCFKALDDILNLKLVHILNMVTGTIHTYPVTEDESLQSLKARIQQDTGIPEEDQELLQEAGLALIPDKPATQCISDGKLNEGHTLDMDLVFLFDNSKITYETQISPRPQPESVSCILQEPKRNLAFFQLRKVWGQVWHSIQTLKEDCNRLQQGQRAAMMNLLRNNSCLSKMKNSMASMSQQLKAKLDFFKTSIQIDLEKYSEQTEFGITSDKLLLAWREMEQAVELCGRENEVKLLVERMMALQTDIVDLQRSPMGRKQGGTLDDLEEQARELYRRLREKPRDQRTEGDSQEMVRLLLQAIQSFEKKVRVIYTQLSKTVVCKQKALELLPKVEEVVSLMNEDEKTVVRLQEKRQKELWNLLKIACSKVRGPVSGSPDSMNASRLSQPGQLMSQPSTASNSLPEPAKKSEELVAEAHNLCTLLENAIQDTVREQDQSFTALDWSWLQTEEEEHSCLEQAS

[11] = target: Insulin receptor (Homo sapiens) (UniProt P06213); assay: Inhibition of IR (unknown origin) at 0.5 uM relative to control
[12] = target: Vascular endothelial growth factor receptor 1 (Homo sapiens) (UniProt P17948); assay: Inhibition of VEGFR1 (unknown origin) at 0.5 uM relative to control
SH-SY5Y [13] = assay: cells; conditions: Homo sapiens, 24 h

Chain of Insulin receptor (Homo sapiens) (P06213 28-758 limits assumed): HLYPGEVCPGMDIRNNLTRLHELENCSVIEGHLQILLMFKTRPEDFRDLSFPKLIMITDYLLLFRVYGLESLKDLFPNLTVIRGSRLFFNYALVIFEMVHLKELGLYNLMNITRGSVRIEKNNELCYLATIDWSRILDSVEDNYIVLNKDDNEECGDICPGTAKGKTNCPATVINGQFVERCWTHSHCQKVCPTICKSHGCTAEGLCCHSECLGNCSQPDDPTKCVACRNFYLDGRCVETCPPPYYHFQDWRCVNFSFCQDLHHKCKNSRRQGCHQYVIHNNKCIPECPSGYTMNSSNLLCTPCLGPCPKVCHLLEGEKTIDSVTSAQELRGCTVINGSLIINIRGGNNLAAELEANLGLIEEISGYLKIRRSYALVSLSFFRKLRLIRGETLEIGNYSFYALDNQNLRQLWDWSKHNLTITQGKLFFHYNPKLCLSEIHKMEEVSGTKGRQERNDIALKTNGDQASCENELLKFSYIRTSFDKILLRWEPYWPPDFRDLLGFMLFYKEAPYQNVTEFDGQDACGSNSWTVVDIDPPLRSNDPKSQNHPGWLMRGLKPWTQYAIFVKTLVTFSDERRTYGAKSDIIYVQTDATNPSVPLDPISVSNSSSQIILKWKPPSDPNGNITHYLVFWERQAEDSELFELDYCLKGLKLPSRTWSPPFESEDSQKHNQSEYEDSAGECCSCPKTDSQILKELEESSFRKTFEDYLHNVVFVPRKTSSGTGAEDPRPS
Chain of Insulin receptor (Homo sapiens) (P06213 763-1382 limits assumed): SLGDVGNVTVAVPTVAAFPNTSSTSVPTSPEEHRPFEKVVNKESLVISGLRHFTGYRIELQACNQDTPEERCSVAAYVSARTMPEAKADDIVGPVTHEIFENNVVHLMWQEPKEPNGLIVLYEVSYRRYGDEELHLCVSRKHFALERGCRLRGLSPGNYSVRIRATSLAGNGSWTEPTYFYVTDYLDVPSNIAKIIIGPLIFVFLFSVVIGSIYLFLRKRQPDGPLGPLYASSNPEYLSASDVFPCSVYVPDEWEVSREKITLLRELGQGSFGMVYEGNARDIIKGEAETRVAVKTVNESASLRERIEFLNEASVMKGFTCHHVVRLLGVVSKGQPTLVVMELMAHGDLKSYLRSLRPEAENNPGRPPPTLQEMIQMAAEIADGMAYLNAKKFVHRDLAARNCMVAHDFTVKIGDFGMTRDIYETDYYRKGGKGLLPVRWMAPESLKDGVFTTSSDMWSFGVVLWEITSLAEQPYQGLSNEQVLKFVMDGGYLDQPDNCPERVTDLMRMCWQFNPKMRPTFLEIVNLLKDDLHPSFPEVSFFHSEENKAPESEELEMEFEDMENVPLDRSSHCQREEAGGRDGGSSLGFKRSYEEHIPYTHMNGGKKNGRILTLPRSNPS
Chain of RAC-beta serine/threonine-protein kinase (Homo sapiens) (P31751 whole entry): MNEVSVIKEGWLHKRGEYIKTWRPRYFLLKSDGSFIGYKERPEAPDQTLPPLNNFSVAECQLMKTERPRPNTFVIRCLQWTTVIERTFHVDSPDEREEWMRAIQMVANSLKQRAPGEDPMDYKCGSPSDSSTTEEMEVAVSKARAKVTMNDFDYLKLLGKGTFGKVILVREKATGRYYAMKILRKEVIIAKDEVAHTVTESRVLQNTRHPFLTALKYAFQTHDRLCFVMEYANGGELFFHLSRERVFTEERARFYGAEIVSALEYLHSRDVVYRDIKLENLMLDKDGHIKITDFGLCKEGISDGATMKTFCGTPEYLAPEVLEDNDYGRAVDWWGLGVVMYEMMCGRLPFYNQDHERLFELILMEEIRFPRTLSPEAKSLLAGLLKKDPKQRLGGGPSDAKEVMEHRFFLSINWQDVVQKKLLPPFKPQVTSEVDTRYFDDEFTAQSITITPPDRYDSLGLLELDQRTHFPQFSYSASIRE
Chain of Aurora kinase B (Homo sapiens) (Q96GD4 whole entry): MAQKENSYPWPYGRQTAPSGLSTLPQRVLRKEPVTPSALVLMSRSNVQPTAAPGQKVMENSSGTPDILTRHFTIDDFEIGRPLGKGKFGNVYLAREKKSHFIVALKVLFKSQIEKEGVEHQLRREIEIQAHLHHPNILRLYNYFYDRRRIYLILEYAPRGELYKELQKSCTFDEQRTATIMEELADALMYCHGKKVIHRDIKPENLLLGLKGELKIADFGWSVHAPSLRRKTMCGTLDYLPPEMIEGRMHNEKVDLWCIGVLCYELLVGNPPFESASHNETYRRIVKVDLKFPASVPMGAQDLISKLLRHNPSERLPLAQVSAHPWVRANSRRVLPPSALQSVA
Chain of Vascular endothelial growth factor receptor 1 (Homo sapiens) (P17948 whole entry): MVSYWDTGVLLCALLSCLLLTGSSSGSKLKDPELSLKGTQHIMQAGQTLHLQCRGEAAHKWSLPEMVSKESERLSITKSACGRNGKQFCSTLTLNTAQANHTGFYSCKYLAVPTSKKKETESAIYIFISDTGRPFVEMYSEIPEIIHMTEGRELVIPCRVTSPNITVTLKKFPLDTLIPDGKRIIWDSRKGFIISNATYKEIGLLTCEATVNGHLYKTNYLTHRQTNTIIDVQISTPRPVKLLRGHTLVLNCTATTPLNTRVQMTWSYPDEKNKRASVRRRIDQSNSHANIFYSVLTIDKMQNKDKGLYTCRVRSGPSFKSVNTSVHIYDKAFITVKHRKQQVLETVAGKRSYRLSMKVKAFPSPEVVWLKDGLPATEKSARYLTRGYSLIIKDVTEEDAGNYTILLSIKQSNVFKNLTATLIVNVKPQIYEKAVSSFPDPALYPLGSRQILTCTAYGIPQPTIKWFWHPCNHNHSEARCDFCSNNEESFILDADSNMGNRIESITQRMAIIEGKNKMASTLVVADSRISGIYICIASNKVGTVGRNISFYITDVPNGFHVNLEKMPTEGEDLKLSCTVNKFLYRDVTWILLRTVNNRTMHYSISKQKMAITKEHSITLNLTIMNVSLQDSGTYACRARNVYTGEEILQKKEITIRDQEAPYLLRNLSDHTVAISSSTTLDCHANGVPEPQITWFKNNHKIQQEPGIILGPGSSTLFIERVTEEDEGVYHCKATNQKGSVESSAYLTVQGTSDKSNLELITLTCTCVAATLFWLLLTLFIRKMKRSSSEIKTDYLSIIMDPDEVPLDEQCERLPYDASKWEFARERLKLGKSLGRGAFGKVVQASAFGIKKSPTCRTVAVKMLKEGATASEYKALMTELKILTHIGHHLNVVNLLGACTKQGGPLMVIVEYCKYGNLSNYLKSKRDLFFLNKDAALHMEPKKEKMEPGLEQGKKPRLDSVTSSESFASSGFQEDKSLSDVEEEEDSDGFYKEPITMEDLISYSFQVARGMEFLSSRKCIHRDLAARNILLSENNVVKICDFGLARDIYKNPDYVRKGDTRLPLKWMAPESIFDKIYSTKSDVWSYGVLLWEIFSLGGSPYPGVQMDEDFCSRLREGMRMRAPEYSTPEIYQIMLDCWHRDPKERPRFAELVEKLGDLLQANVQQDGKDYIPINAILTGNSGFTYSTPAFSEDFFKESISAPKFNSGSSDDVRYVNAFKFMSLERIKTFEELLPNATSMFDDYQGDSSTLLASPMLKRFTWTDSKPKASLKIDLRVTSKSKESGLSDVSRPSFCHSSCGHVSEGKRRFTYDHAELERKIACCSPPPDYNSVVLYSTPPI

IC50 [4]: 1400 nM | IC50 [5]: 2200 nM | inhibition [6]: 12.6% | inhibition [7]: 26.5% | inhibition [8]: 0% | inhibition [9]: 0% | inhibition [10]: 7.8% | inhibition [11]: 11.1% | inhibition [12]: 0% | IC50 (SH-SY5Y [13]): > 100000 nM
Structure (SMILES): Nc1nccc(-c2cn(C(=O)N3CCOCC3)c3ccc(Br)cc23)n1
viability at 24 h, 30 µM [1]: 87% | viability at 50 µM (SH-SY5Y [2]): 86.4% | viability at 10 µM (SH-SY5Y [3]): 82.5%
